This passage reports IC50 results from patent publication US20240059703A1 (AMGEN INC., priority 2021, published 2024).

The target in this assay is KRAS G12C (Homo sapiens (Human), UniProt P01116, C118A/G12C). Description: 2 h coupled exchange assay. It is filed as biochemical. Particulars: Avg 2 h Coupled exchange IC50, 2 h compound pre-incubation, SOS-mediated nucleotide exchange. Here is the method: The term “2 h coupled exchange assay” or “20 h coupled exchange assay” as used herein refers to the assay described in the Section entitled “BIOLOGICAL EVALUATION.”
Chain of KRAS G12C (P01116 other isoform, or with tags, fused parts or gaps G12C/C118A): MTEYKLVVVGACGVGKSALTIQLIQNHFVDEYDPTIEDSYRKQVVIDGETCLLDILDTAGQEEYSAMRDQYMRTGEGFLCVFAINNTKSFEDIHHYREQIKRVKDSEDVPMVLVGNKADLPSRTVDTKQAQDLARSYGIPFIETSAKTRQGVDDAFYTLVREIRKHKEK
`C=CC(=O)N1CC2(CCN(c3nc4c(c(-c5c(C)ccc6cnn(C)c56)c3C#N)C[C@H]3C[C@@H]4C3(C)C)[C@@H]2CO)C1` [Example 13-61, (1R,9R)-6-(1,6-dimethyl-1H-indazol-7-yl)-4-((5S)-5-(hydroxymethyl)-2-(2-propenoyl)-2,6-diazaspiro[3.4]octan-6-yl)-10,10-dimethyl-3-azatricyclo[7.1.1.0^2,7]undeca-2,4,6-triene-5-carbonitrile]: the IC50 was found to be 332 nM. The molecule `C=CC(=O)N1CC2(CCN(c3nc4c(c(-c5c(C)ccc6cnn(C)c56)c3C#N)C[C@H]3C[C@@H]4C3(C)C)[C@H]2CO)C1` [Example 13-62, (1R,9R)-6-(1,6-dimethyl-1H-indazol-7-yl)-4-((5R)-5-(hydroxymethyl)-2-(2-propenoyl)-2,6-diazaspiro[3.4]octan-6-yl)-10,10-dimethyl-3-azatricyclo[7.1.1.0^2,7]undeca-2,4,6-triene-5-carbonitrile] came in with a concentration for half-maximal inhibition (IC50) of 334 nM. The IC50 values of the last two molecules are within 1.5-fold of each other. As for `C=CC(=O)N1CC2(CCN(c3nc4c(c(-c5c(C)ccc6cnn(C)c56)c3C#N)CCC3CC43)C2CO)C1` (stereo not drawn) [Example 13-63], the figure is 145 nM; as for `C=CC(=O)N1CC2(CCN(c3nc4c(c(-c5c(O)cccc5Cl)c3C#N)C[C@H]3C[C@@H]4C3)C2)C1` [Example 13-64, (1S,9S)-6-(2-chloro-6-hydroxyphenyl)-4-(2-(2-propenoyl)-2,6-diazaspiro[3.4]octan-6-yl)-3-azatricyclo[7.1.1.0^2,7]undeca-2,4,6-triene-5-carbonitrile], 1080 nM.

Turning to `C=CC(=O)N1CC2(CCN(c3nc4c(c(-c5cc(O)c(F)c6ccccc56)c3C#N)CC(C)(C)C4)C2)C1` [Example 13-70, 4-(4-fluoro-3-hydroxy-1-naphthalenyl)-6,6-dimethyl-2-(2-(2-propenoyl)-2,6-diazaspiro[3.4]octan-6-yl)-6,7-dihydro-5H-cyclopenta[b]pyridine-3-carbonitrile], the IC50 is 291 nM. Then `C=CC(=O)N1CC2(CCN(c3nc4c(c(-c5cc(O)c(F)c6ccccc56)c3C#N)COC(C)(C)C4)C2)C1` [Example 13-71, 4-(4-fluoro-3-hydroxy-1-naphthalenyl)-7,7-dimethyl-2-(2-(2-propenoyl)-2,6-diazaspiro[3.4]octan-6-yl)-7,8-dihydro-5H-pyrano[4,3-b]pyridine-3-carbonitrile], with 366 nM; and `C=CC(=O)N1CC2(CCN(c3nc4c(c(-c5cc(O)c(F)c6ccccc56)c3C#N)CCC3CC43)C2)C1` [Example 13-72, (6aR,7aR)-4-(4-fluoro-3-hydroxy-1-naphthalenyl)-2-(2-(2-propenoyl)-2,6-diazaspiro[3.4]octan-6-yl)-6,6a,7,7a-tetrahydro-5H-cyclopropa[h]quinoline-3-carbonitrile|(6aS,7aS)-4-(4-fluoro-3-hydroxy-1-naphthalenyl)-2-(2-(2-propenoyl)-2,6-diazaspiro[3.4]octan-6-yl)-6,6a,7,7a-tetrahydro-5H-cyclopropa[h]quinoline-3-carbonitrile], with 564 nM. The molecule `CN(C)C/C=C/C(=O)N1CC2(CCN(c3nc4c(c(-c5cc(O)cc6ccccc56)c3C#N)CCC3CC43)C2)C1` [Example 13-85, (6aR,7aS)-2-(2-((2E)-4-(dimethylamino)-2-butenoyl)-2,6-diazaspiro[3.4]octan-6-yl)-4-(3-hydroxy-1-naphthalenyl)-6,6a,7,7a-tetrahydro-5H-cyclopropa[h]quinoline-3-carbontirile|(6aS,7aR)-2-(2-((2E)-4-(dimethylamino)-2-butenoyl)-2,6-diazaspiro[3.4]octan-6-yl)-4-(3-hydroxy-1-naphthalenyl)-6,6a,7,7a-tetrahydro-5H-cyclopropa[h]quinoline-3-carbonitrile] showed an IC50 of 316 nM. This IC50 lies about 1.8-fold lower than the previous one. As to `C=CC(=O)N1CC2(CCN(c3nc4c(c(-c5c(C)ccc6[nH]ncc56)c3C#N)OC3(COC3)C4)C2)C1` [Example 13-107, 7-(5-methyl-1H-indazol-4-yl)-5-(2-(2-propenoyl)-2,6-diazaspiro[3.4]octan-6-yl)-3H-spiro[furo[3,2-b]pyridin-2,3′-oxetane]-6-carbonitrile], the IC50 turned out to be 702 nM.
